Experimental data as given in patent publication US20140315876A1, “BETA-LACTAMASE INHIBITORS” (priority 2013, published 2014).
Where a name gives a salt, the structure may show the parent alone.

Key:
[1] = tested on: bacterial strains that express the class D cephalosporinase OXA-15; test: Synergy MIC / standard BLI potentiation MIC assay, strains expressing OXA-15; format: cell-based, E. coli; settings: in the presence of a β-lactam; comparator Avibactam (comparator compound CCC)
Summary of the method: (§1)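 Broth microdilution in CAMHB per CLSI, ~10^5 CFU/mL, 18-20 h at 37° C; MIC is lowest concentration with no visible turbidity. Potentiation: β-lactam 128-0.13 μg/mL with BLI fixed at 4 μg/mL. Synergy: BLI serially diluted with β-lactam fixed. Engineered E. coli kept on 25 μg/mL tetracycline.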

[2] = tested on: bacterial strains that express KPC β-lactamases; test: Synergy MIC / standard BLI potentiation MIC assay, strains expressing KPC β-lactamases; format: cell-based; settings: more active for at least one KPC strain and/or better spectrum of activity than Avibactam; in the presence of a β-lactam
Summary of the method: as §1

| SMILES | activity against bacterial strains that express the class D cephalosporinase OXA-15, compared with Avibactam [1] | activity and/or spectrum of activity against bacterial strains that express KPC β-lactamases, compared with Avibactam [2] |
| --- | --- | --- |
| N[C@H]1C[C@H](CCc2nnc([C@@H]3CC[C@@H]4CN3C(=O)N4OS(=O)(=O)O)o2)C1 [Compound 753, (2S,5R)-2-(5-(2-((1r,3R)-3-aminocyclobutyl)ethyl)-1,3,4-oxadiazol-2-yl)-7-oxo-1,6-diazabicyclo[3.2.1]octan-6-yl hydrogen sulfate] | more active than Avibactam | more active than Avibactam |
| N[C@H]1C[C@@H](CCc2nnc([C@@H]3CC[C@@H]4CN3C(=O)N4OS(=O)(=O)O)o2)C1 [Compound 754, (2S,5R)-2-(5-(2-((1s,3S)-3-aminocyclobutyl)ethyl)-1,3,4-oxadiazol-2-yl)-7-oxo-1,6-diazabicyclo[3.2.1]octan-6-yl hydrogen sulfate] | more active than Avibactam | more active than Avibactam |
| NC1CC(NCc2nnc([C@@H]3CC[C@@H]4CN3C(=O)N4OS(=O)(=O)O)o2)C1 (stereo partly drawn) [Compound 755, (2S,5R)-2-(5-(((3-aminocyclobutyl)amino)methyl)-1,3,4-oxadiazol-2-yl)-7-oxo-1,6-diazabicyclo[3.2.1]octan-6-yl hydrogen sulfate] | more active than Avibactam | more active than Avibactam |
| N[C@H]1C[C@@H](NCc2nnc([C@@H]3CC[C@@H]4CN3C(=O)N4OS(=O)(=O)O)o2)C1 [Compound 756, (2S,5R)-2-(5-((((1s,3R)-3-aminocyclobutyl)amino)methyl)-1,3,4-oxadiazol-2-yl)-7-oxo-1,6-diazabicyclo[3.2.1]octan-6-yl hydrogen sulfate] | more active than Avibactam | more active than Avibactam |
| O=C1N2C[C@@H](CC[C@H]2c2nnc([C@H]3CCNC3)o2)N1OS(=O)(=O)O [Compound 758, (2S,5R)-7-oxo-2-(5-((S)-pyrrolidin-3-yl)-1,3,4-oxadiazol-2-yl)-1,6-diazabicyclo[3.2.1]octan-6-yl hydrogen sulfate] | more active than Avibactam | more active than Avibactam |
| O=C1N2C[C@@H](CC[C@H]2c2nnc([C@@H]3CCNC3)o2)N1OS(=O)(=O)O [Compound 759, (2S,5R)-7-oxo-2-(5-((R)-pyrrolidin-3-yl)-1,3,4-oxadiazol-2-yl)-1,6-diazabicyclo[3.2.1]octan-6-yl hydrogen sulfate] | more active than Avibactam | more active than Avibactam |
| N[C@@H]1CN[C@H](c2nnc([C@@H]3CC[C@@H]4CN3C(=O)N4OS(=O)(=O)O)o2)C1 [Compound 760, (2S,5R)-2-(5-((2S,4S)-4-aminopyrrolidin-2-yl)-1,3,4-oxadiazol-2-yl)-7-oxo-1,6-diazabicyclo[3.2.1]octan-6-yl hydrogen sulfate] | more active than Avibactam | more active than Avibactam |
| N[C@H]1CN[C@@H](c2nnc([C@@H]3CC[C@@H]4CN3C(=O)N4OS(=O)(=O)O)o2)C1 [Compound 761, (2S,5R)-2-(5-((2R,4R)-4-aminopyrrolidin-2-yl)-1,3,4-oxadiazol-2-yl)-7-oxo-1,6-diazabicyclo[3.2.1]octan-6-yl hydrogen sulfate] | more active than Avibactam | more active than Avibactam |
